# Legend:
# BSJ-03-123 [1] = compound: T1, CC(=O)c1c(C)c2cnc(Nc3ccc(N4CCN(CCOCCOCCOCCNC(=O)COc5cccc6c5C(=O)N(C5CCC(=O)NC5=O)C6=O)CC4)cn3)nc2n(C2CCCC2)c1=O [BSJ-03-123]
# Volasertib/BI6727 = compound: CC[C@@H]1C(=O)N(C)c2cnc(Nc3ccc(C(=O)N[C@H]4CC[C@H](N5CCN(CC6CC6)CC5)CC4)cc3OC)nc2N1C(C)C [Volasertib/BI6727]
# Ceritinib/LDK378 = compound: Cc1cc(Nc2ncc(Cl)c(Nc3ccccc3S(=O)(=O)C(C)C)n2)c(OC(C)C)cc1C1CCNCC1 [Ceritinib/LDK378]
# INK128/MLN0128 = compound: CC(C)n1nc(-c2ccc3oc(N)nc3c2)c2c(N)ncnc21 [INK128/MLN0128]
# Neratinib/HKI272 [2] = compound: T2, CCOc1cc2ncc(C#N)c(Nc3ccc(OCc4ccccn4)c(Cl)c3)c2cc1NC(=O)/C=C/CN(C)C [Neratinib/HKI272]
# [3] = compound: COc1ccc2c(c1)[C@]1(C[C@H]1c1ccc3c(/C=C/c4ccc(CN5C[C@@H](C)O[C@@H](C)C5)cc4)n[nH]c3c1)C(=O)N2
# Tivantinib/ARQ197 = compound: O=C1NC(=O)[C@@H](c2cn3c4c(cccc24)CCC3)[C@@H]1c1c[nH]c2ccccc12 [Tivantinib/ARQ197]
# Paclitaxel = compound: CC(=O)O[C@H]1C(=O)[C@@]2(C)[C@H]([C@H](OC(=O)c3ccccc3)[C@]3(O)C[C@H](OC(=O)[C@H](O)[C@@H](NC(=O)c4ccccc4)c4ccccc4)C(C)=C1C3(C)C)[C@]1(OC(C)=O)CO[C@@H]1C[C@@H]2O [Paclitaxel]
# ABT-737 = compound: CN(C)CC[C@H](CSc1ccccc1)Nc1ccc(S(=O)(=O)NC(=O)c2ccc(N3CCN(Cc4ccccc4-c4ccc(Cl)cc4)CC3)cc2)cc1[N+](=O)[O-] [ABT-737]
# Taselisib/GDC0032 = compound: Cc1nc(-c2cn3c(n2)-c2ccc(-c4cnn(C(C)(C)C(N)=O)c4)cc2OCC3)n(C(C)C)n1 [Taselisib/GDC0032]
# Pictilisib/GDC0941 = compound: CS(=O)(=O)N1CCN(Cc2cc3nc(-c4cccc5[nH]ncc45)nc(N4CCOCC4)c3s2)CC1 [Pictilisib/GDC0941]
# THZ531 = compound: CN(C)C/C=C/C(=O)Nc1ccc(C(=O)N2CCC[C@@H](Nc3ncc(Cl)c(-c4c[nH]c5ccccc45)n3)C2)cc1 [THZ531]
# [4] = compound: CCN1CCN(Cc2ccc(Nc3ncc(F)c(-c4cc(F)c5nc(C)n(C(C)C)c5c4)n3)nc2)CC1
# BSJ-03-123 [5] = compound: T1, BSJ-03-123; experiment: GR value, 72 h; higher = faster growth (1 = untreated, <0 = killing);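 note: breast cancer and non-malignant breast epithelial lines, nine half-log doses, viable cells counted by Hoechst and LIVE/DEAD dye imaging versus time-zero plates and DMSO controls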
# YKL-5-124 = compound: C=CC(=O)Nc1ccc(C(=O)Nc2[nH]nc3c2CN(C(=O)N[C@H](CN(C)C)c2ccccc2)C3(C)C)cc1 [YKL-5-124]; experiment: as above
# Neratinib/HKI272 [6] = compound: T2, Neratinib/HKI272; experiment: as above
# [7] = compound: CCc1cnn2c(NCc3ccc[n+]([O-])c3)cc(N3CCCC[C@H]3CCO)nc12; experiment: as above
# LEE011/Ribociclib = compound: CN(C)C(=O)c1cc2cnc(Nc3ccc(N4CCNCC4)cn3)nc2n1C1CCCC1 [LEE011/Ribociclib]; experiment: as above
# [8] = compound: CCN1CCN(Cc2ccc(Nc3ncc(F)c(-c4cc(F)c5nc(C)n(C(C)C)c5c4)n3)nc2)CC1; experiment: as above
# 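Throughout, for GR50, 72 h: breast cancer and non-malignant breast epithelial cell lines, Deep Dye Drop or Dye Drop imaging, nine half-log doses, GR normalized to time-zero plates and DMSO-only controls.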
cell line,measurement,setting,value
MDAMB175VII,"GR50, 72 h",BSJ-03-123 [1],0.301 µM
same,"GR50, 72 h",Volasertib/BI6727,0.0114 µM
same,"GR50, 72 h",Ceritinib/LDK378,2.56 µM
same,"GR50, 72 h",INK128/MLN0128,0.00349 µM
same,"GR50, 72 h",Neratinib/HKI272 [2],0.00127 µM
same,"GR50, 72 h",[3],0.00391 µM
same,"GR50, 72 h",Tivantinib/ARQ197,0.267 µM
same,"GR50, 72 h",Paclitaxel,0.00295 µM
same,"GR50, 72 h",ABT-737,4.58 µM
same,"GR50, 72 h",Taselisib/GDC0032,0.00272 µM
same,"GR50, 72 h",Pictilisib/GDC0941,0.345 µM
same,"GR50, 72 h",THZ531,0.0409 µM
same,"GR50, 72 h",[4],0.00292 µM
same,GR value,BSJ-03-123 [5]; 0.001 µM,0.829 GR
same,GR value,BSJ-03-123 [5]; 0.003162 µM,0.79 GR
same,GR value,BSJ-03-123 [5]; 0.01 µM,0.713 GR
same,GR value,BSJ-03-123 [5]; 0.03162 µM,0.688 GR
same,GR value,BSJ-03-123 [5]; 0.1 µM,0.734 GR
same,GR value,BSJ-03-123 [5]; 0.3162 µM,0.573 GR
same,GR value,BSJ-03-123 [5]; 1 µM,0.378 GR
same,GR value,BSJ-03-123 [5]; 3.162 µM,0.262 GR
same,GR value,BSJ-03-123 [5]; 10 µM,0.0206 GR
same,GR value,YKL-5-124; 0.001 µM,0.0803 GR
same,GR value,YKL-5-124; 0.003162 µM,0.0736 GR
same,GR value,YKL-5-124; 0.01 µM,0.0488 GR
same,GR value,YKL-5-124; 0.03162 µM,0.076 GR
same,GR value,YKL-5-124; 0.1 µM,0.0075 GR
same,GR value,YKL-5-124; 0.3162 µM,0.118 GR
same,GR value,YKL-5-124; 1 µM,-0.0042 GR
same,GR value,YKL-5-124; 3.162 µM,0.0879 GR
same,GR value,YKL-5-124; 10 µM,-0.754 GR
same,GR value,Neratinib/HKI272 [6]; 0.0003162 µM,0.753 GR
same,GR value,Neratinib/HKI272 [6]; 0.001 µM,0.53 GR
same,GR value,Neratinib/HKI272 [6]; 0.003162 µM,0.138 GR
same,GR value,Neratinib/HKI272 [6]; 0.01 µM,-0.551 GR
same,GR value,Neratinib/HKI272 [6]; 0.03162 µM,-0.848 GR
same,GR value,Neratinib/HKI272 [6]; 0.1 µM,-0.905 GR
same,GR value,Neratinib/HKI272 [6]; 0.3162 µM,-0.932 GR
same,GR value,Neratinib/HKI272 [6]; 1 µM,-0.949 GR
same,GR value,Neratinib/HKI272 [6]; 3.162 µM,-0.983 GR
same,GR value,[7]; 0.0001 µM,1.09 GR
same,GR value,[7]; 0.0003162 µM,1.07 GR
same,GR value,[7]; 0.001 µM,1.14 GR
same,GR value,[7]; 0.003162 µM,1.23 GR
same,GR value,[7]; 0.01 µM,0.742 GR
same,GR value,[7]; 0.03162 µM,-0.651 GR
same,GR value,[7]; 0.1 µM,-0.516 GR
same,GR value,[7]; 0.3162 µM,-0.49 GR
same,GR value,[7]; 1 µM,-0.497 GR
same,GR value,LEE011/Ribociclib; 0.001 µM,0.4 GR
same,GR value,LEE011/Ribociclib; 0.003162 µM,0.267 GR
same,GR value,LEE011/Ribociclib; 0.01 µM,0.288 GR
same,GR value,LEE011/Ribociclib; 0.03162 µM,0.15 GR
same,GR value,LEE011/Ribociclib; 0.1 µM,0.195 GR
same,GR value,LEE011/Ribociclib; 0.3162 µM,0.0606 GR
same,GR value,LEE011/Ribociclib; 1 µM,0.0351 GR
same,GR value,LEE011/Ribociclib; 3.162 µM,0.19 GR
same,GR value,LEE011/Ribociclib; 10 µM,0.192 GR
same,GR value,[8]; 0.001 µM,0.725 GR
same,GR value,[8]; 0.003162 µM,0.505 GR
same,GR value,[8]; 0.01 µM,0.0712 GR
same,GR value,[8]; 0.03162 µM,0.105 GR
same,GR value,[8]; 0.1 µM,0.0173 GR
same,GR value,[8]; 0.3162 µM,0.0287 GR
same,GR value,[8]; 1 µM,-0.0111 GR
same,GR value,[8]; 3.162 µM,-0.0725 GR
same,GR value,[8]; 10 µM,-0.173 GR

# Source: the supplement of paper PMC9663587
